From US4870097A, “Pharmaceutical use of derivatives of tryptophan” (priority 1984, dated 1989)

Experiments:
[1] = test system: analgesic activity of morphine; test: Tail Flick Test: increase in the analgesic effect of morphine; format: in vivo, rats; conditions: for percentage variation in the latency of the pain sensation, 10' / percentage variation in the latency of the pain sensation, 20' / percentage variation in the latency of the pain sensation, 30' / percentage variation in the latency of the pain sensation, 45' / percentage variation in the latency of the pain sensation, 60' / percentage variation in the latency of the pain sensation, 90' / M(10'-90') average percentage variation: compound 10 mg/kg i.p. + morphine 2 mg/kg (row Morphine: alone); for percentage variation in the latency of the pain sensation, 10' / percentage variation in the latency of the pain sensation, 20' / percentage variation in the latency of the pain sensation, 30' / percentage variation in the latency of the pain sensation, 45' / percentage variation in the latency of the pain sensation, 60' / percentage variation in the latency of the pain sensation, 90': ± S.E.; for M(10'-90') average percentage variation: mean 10'-90'; for Potency ratio relative to morphine alone: rat, in vivo
Method: Increase in the analgesic effect of analgesic-narcotic drugs in rats in the Tail Flick Test
The method is that described by Harris et al. (J. Pharmacol. Exp. Ther. 143 (1964) 141-148).
Male rats are used which have a weight of about 150-200 g and which have not been fasting. A point is chosen on the tail and this is irradiated by a heat source (75° C.) and the time (in seconds) for which the animal remains without moving its tail is measured.
A maximum period of time under the heat source of 8 seconds is chosen after which the animal is, in any case, removed in order to avoid tissue damage. The measurement is effected before (controls) and after treatment with the drugs.
. The percentage variation is calculated for each individual animal by the following formula: [formula] The measurements are carried out 10, 20, 30, 45, 60 and 90 minutes after treatment with the analgesics.
The results obtained are given in Table 1 which records the groups treated and the doses administered, the
average percentage variations (calculated on groups of five animals) in […]

[2] = test system: guinea pig gall bladder contracted with CCK-8; test: Anti-CCK activity on guinea pig gall bladders in vitro; format: biochemical; conditions: CCK-8 10 ng/ml, concentration antagonising 50% of contracting effect
Method: A longitudinal strip of guinea pig gall bladder is placed in a bath of Krebs for isolated organs at a temperature of 32° C. and oxygenated continuously with an oxygen-CO2 mixture (95-5 V/V).
The […] contractions are detected by means of a force transducer and recorded.
The gall bladder is contracted with the use of a CCK-8 solution at a concentration of 10 ng/ml; the antagonistic activity of the compounds of the invention towards the contracting effect of the CCK is determined with the use of different concentrations, the ED50 value, that is the concentration of the compound in mcg/ml capable of antagonising 50% of the contracting effect of the CCK, being determined.
The results obtained are set out in the following table which gives the compounds tested and the ED50 values which are calculated by the method of regression on a test of at least three experiments for each compound studied.

Row | Compound | percentage variation in the latency of the pain sensation, 10' [1] [%] | percentage variation in the latency of the pain sensation, 20' [1] [%] | percentage variation in the latency of the pain sensation, 30' [1] [%] | percentage variation in the latency of the pain sensation, 45' [1] [%] | percentage variation in the latency of the pain sensation, 60' [1] [%] | percentage variation in the latency of the pain sensation, 90' [1] [%] | M(10'-90') average percentage variation [1] [%] | Potency ratio relative to morphine alone [1] | Anti CCK-8 activity, ED50 [2]
1 | N#Cc1ccc(COC(=O)N[C@@H](Cc2c[nH]c3ccccc23)C(=O)O)cc1 [Compound 11] | 53.4 ± 13.5 | 80.0 ± 13.0 | 90.4 ± 9.6 | 84.9 ± 15.1 | 55.6 ± 18.3 | 50.9 ± 20.7 | 72.9 | 2.45 | 34.3 µg/mL
2 | O=C(N[C@@H](Cc1c[nH]c2ccccc12)C(=O)O)OCc1ccc(Br)cc1 [Compound 3] | 70.7 ± 19.7 | 90.3 ± 9.7 | 74.7 ± 16.9 | 86.2 ± 11.0 | 100.0 ± 0.0 | 53.7 ± 17.2 | 79.3 | 2.66 | 33.6 µg/mL
3 | Cc1ccc(C(=O)N[C@@H](Cc2c[nH]c3ccccc23)C(=O)O)cc1C [Compound 29] | 54.7 ± 14.1 | 62.6 ± 16.5 | 62.8 ± 17.5 | 65.9 ± 16.0 | 51.4 ± 12.7 | 52.5 ± 15.7 | 58.3 | 1.96 | IN (inactive up to 400 mcg/ml)
4 | O=C(N[C@@H](Cc1c[nH]c2ccccc12)C(=O)O)c1ccc(I)cc1 [Compound 15] | 77.7 ± 13.8 | 81.7 ± 12.3 | 91.0 ± 9.0 | 89.0 ± 11.0 | 70.4 ± 17.2 | 60.3 ± 12.6 | 78.3 | 2.63 | IN (inactive up to 400 mcg/ml)
5 | Cc1ccc(COC(=O)N[C@@H](Cc2c[nH]c3ccccc23)C(=O)O)cc1Cl [Compound 10] | 51.5 ± 48.9 | 58.3 ± 16.5 | 66.0 ± 14.1 | 56.9 ± 17.0 | 56.2 ± 23.5 | 34.2 ± 8.4 | 55.5 | 1.86 | 88.5 µg/mL
6 | Cc1ccc(C(=O)N[C@@H](Cc2c[nH]c3ccccc23)C(=O)O)cc1 [Compound 18] | 7.8 ± 16.1 | 14.9 ± 17.1 | 42.1 ± 18.3 | 26.6 ± 20.5 | 32.7 ± 25.9 | 41.1 ± 24.3 | 27.5 | 0.93 | IN (inactive up to 400 mcg/ml)
7 | O=C(N[C@@H](Cc1c[nH]c2ccccc12)C(=O)O)c1ccc(F)cc1 [Compound 14] | 47.9 ± 21.0 | 90.2 ± 9.8 | 80.0 ± 12.5 | 67.7 ± 19.8 | 70.5 ± 18.1 | 61.5 ± 11.8 | 69.6 | 2.33 | 233.2 µg/mL
8 | O=C(N[C@@H](Cc1c[nH]c2ccccc12)C(=O)O)c1ccc(C(F)(F)F)cc1 [Compound 30] | 9.8 ± 10.5 | 45.6 ± 16.1 | 69.3 ± 22.2 | 62.3 ± 21.9 | 54.8 ± 17.6 | 24.7 ± 15.5 | 43.6 | 1.46 | IN (inactive up to 400 mcg/ml)
9 | O=C(N[C@@H](Cc1c[nH]c2ccccc12)C(=O)O)OCc1ccc(I)cc1 [Compound 4] | 62.8 ± 22.8 | 76.9 ± 14.4 | 85.3 ± 13.9 | 56.4 ± 18.2 | 48.1 ± 16.9 | 19.4 ± 11.1 | 58.2 | 1.95 | 48.2 µg/mL
10 | CCc1ccc(C(=O)N[C@@H](Cc2c[nH]c3ccccc23)C(=O)O)cc1 [Compound 19] | 41.9 ± 12.8 | 43.9 ± 19.5 | 61.3 ± 18.1 | 49.4 ± 19.5 | 28.5 ± 17.0 | 14.4 ± 12.9 | 39.9 | 1.34 | 135.2 µg/mL
11 | O=C(N[C@@H](Cc1c[nH]c2ccccc12)C(=O)O)OCc1cccc(Cl)c1 [Compound 5] | 34.5 ± 13.3 | 53.0 ± 24.8 | 62.5 ± 16.6 | 50.5 ± 17.6 | 43.7 ± 10.1 | 52.2 ± 22.2 | 50.9 | 1.71 | 23.2 µg/mL
12 | CCCCc1ccc(C(=O)N[C@@H](Cc2c[nH]c3ccccc23)C(=O)O)cc1 [Compound 23] | 47.9 ± 15.7 | 50.3 ± 10.1 | 56.9 ± 20.6 | 67.2 ± 20.9 | 41.1 ± 16.3 | 36.1 ± 18.0 | 49.9 | 1.67 | 74.0 µg/mL
13 | O=C(N[C@@H](Cc1c[nH]c2ccccc12)C(=O)O)OCc1ccc(Cl)c(Cl)c1 [Compound 6] | 68.6 ± 20.4 | 78.0 ± 17.9 | 80.4 ± 19.6 | 84.5 ± 11.4 | 76.3 ± 13.8 | 71.9 ± 15.2 | 78.6 | 2.57 | 16.1 µg/mL
14 | N#Cc1ccc(C(=O)N[C@@H](Cc2c[nH]c3ccccc23)C(=O)O)cc1 [Compound 31] | 67.6 ± 16.1 | 66.3 ± 3.5 | 81.4 ± 14.7 | 73.4 ± 18.0 | 77.4 ± 10.3 | 21.3 ± 16.5 | 64.6 | 2.17 | IN (inactive up to 400 mcg/ml)
